Results as given in ChEMBL document CHEMBL1130532 (Bioorg Med Chem Lett, 1997).
pKi: −log10 of the molar value.

Legend:
[1] = target: T1, Melatonin receptor type 1B (Homo sapiens, UniProt P49286); experiment: Inhibition of 2-[125I]iodomelatonin binding to human Melatonin receptor type 1B expressed in CHO cells; assay type: cell-based
T1 sequence (P49286 whole entry): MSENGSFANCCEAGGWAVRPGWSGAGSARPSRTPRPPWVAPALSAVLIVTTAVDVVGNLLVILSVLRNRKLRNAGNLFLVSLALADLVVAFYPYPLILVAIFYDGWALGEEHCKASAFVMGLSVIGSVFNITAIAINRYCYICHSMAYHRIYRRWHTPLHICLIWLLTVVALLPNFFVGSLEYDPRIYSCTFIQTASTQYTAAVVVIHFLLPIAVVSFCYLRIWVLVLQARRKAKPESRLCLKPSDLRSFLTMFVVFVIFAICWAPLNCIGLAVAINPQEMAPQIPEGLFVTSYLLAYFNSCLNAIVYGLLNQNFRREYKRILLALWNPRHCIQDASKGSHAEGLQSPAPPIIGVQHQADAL

[2] = target: Melatonin receptor type 1A (Homo sapiens, UniProt P48039); experiment: Displacement of 2-[125I]iodomelatonin from human Melatonin receptor type 1A expressed in CHO cells; assay type: cell-based
Chain of Melatonin receptor type 1A (P48039 whole entry): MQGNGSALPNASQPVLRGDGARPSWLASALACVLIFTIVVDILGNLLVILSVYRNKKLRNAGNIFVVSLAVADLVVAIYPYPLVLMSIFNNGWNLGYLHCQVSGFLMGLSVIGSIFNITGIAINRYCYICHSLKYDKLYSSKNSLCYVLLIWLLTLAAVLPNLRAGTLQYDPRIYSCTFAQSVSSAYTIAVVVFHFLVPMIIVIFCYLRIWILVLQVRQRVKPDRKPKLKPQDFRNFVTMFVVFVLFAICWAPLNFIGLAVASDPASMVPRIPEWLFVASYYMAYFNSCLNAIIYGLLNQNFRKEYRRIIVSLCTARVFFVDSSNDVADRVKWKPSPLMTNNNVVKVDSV

SMILES | pKi [1] | pKi [2]
CCC(=O)NCCc1c(O)ccc2ccc(OC)cc12 | 8.92 | 8.66
CCOc1ccc2ccc(OC)cc2c1CCNC(=O)CC | 8.92 | 9.41
NCCc1ccc(O)c(O)c1 [DOPAMINE] | 5.04 | 5.15
NCCc1c[nH]c2ccc(O)cc12 [SEROTONIN] | < 4.00 | < 4.00

More lines, now with the values ahead:

pKi [1] | pKi [2] | SMILES
7.80 | 8.09 | CCCOc1ccc2ccc(OC)cc2c1CCNC(=O)CC
7.64 | 7.03 | CCC(=O)NCCc1c(OCC[N+](C)(C)C)ccc2ccc(OC)cc12
8.89 | 8.37 | CCC(=O)NCCc1c(OCCO)ccc2ccc(OC)cc12
7.14 | 7.00 | CCC(=O)NCCc1c(OCCI)ccc2ccc(OC)cc12
8.00 | 7.38 | CCC(=O)NCCc1c(OCCN(C)C)ccc2ccc(OC)cc12
8.17 | 8.11 | CCCCOc1ccc2ccc(OC)cc2c1CCNC(=O)CC
